Biological target: T1, Fructose-bisphosphate aldolase (Mycobacterium tuberculosis (strain ATCC 25618 / H37Rv), UniProt P9WQA3)
T1 sequence (P9WQA3 whole entry): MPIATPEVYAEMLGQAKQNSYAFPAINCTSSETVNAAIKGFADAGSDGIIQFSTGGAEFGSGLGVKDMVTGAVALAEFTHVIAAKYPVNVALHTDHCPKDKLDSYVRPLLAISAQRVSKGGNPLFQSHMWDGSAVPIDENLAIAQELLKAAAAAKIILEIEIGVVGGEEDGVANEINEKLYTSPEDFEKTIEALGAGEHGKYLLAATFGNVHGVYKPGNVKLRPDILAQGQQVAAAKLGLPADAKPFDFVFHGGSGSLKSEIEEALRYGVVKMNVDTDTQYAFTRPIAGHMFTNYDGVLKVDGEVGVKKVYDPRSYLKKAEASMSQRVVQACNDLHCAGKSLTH

| Structure (SMILES) | IC50 |
| --- | --- |
| O=C(NCc1cccc(Cl)c1)C1=C2NS(=O)(=O)C=CN2C=CC1 [MLS002162417] | 2610 nM |
| N#CC1=C(C2CC2)CC(c2ccccc2)C(C#N)C1=N (configuration not stated) [SMR000039375] | > 10000 nM |
